Experimental data: patent publication US20040001888A1, “Solid dosage forms for rapid dissolution of poorly soluble drugs” (BioPharm Solutions Inc., priority 2002, published 2004)
Values after ≈ are worked out from the molar mass of the structure shown. Like-named read-outs stand apart in the source and are kept apart here.

Key:
[1] = Size distribution of drug-lipid droplets after dissolution (sub-micron particle sizer); assay type: physicochemical; conditions: triamterene from active-release tablets
Method: The morphologies of triamterene after dissolution in 0.1 M HCl and in water were characterized using a sub-micron particle sizer. The aliquots collected at the end of dissolution were centrifuged under the same conditions as in Example 4 prior to measurement. […] The impregnated powder was suspended in 900 ml PBS buffer at 37° C. with stirring at 100 rpm. […] The aliquots were collected at programmed time intervals, followed by centrifugation at 1000 rpm in an Eppendorf tube for 1 min.

[2] = Water dispersity of triamterene-Gelucire 44/14 melts; assay type: physicochemical; conditions: 30 mg triamterene in melted Gelucire, drug-lipid melt in 900 ml water
Method: To examine the compositions described above, triamterene was used as a model drug. […] In experiment, 30 mg triamterene was dissolved in various amounts of melted Gelucire to make the drug concentration to be 5%, 7.5%, 10% 12.5% 15% and 20%, respectively. Then the drug-lipid melts were dissolved in 900 ml of water. Up to 10% of triamterene in Gelucire, the drug was dispersed in water without precipitates. At higher drug contents (i.e. less lipids), precipitates were observed under a microscope. Drug concentration (in Gelucire) of 10% was selected-for later experiments.

[3] = cited from earlier work

mean diameter of droplets ([1]; dissolution in water): 277 nm
particles after dissolution ([1]; dissolution medium 0.1 M HCl): no particles were detected
drug concentration in Gelucire dispersed in water without precipitates [2]: Up to 10%
Structure (SMILES): Nc1nc(N)c2nc(-c3ccccc3)c(N)nc2n1 [triamterene]
solubility ([3]; pH 1 buffer): 321 µg/mL (≈ 1270 µM)
solubility ([3]; pH 7): 45 µg/mL (≈ 178 µM)
